pIC50: −log10 of the molar value. Active and inactive are the calls of the source. The rule behind the calls is not given here.
Legend:
U-87 MG [1] = experiment: Antiproliferation activity against human U-87 MG cells assessed as growth inhibition measured after 1 hr by MTT assay; type: functional, cell-based, U-87MG ATCC
Histone deacetylase 1 = Histone deacetylase 1 (Homo sapiens, UniProt Q13547); experiment: Inhibition of human recombinant HDAC1 expressed in baculovirus infected insect cells using [RHKK(Ac)] fluorogenic substrate
Sequence of Histone deacetylase 1 (Q13547 whole entry): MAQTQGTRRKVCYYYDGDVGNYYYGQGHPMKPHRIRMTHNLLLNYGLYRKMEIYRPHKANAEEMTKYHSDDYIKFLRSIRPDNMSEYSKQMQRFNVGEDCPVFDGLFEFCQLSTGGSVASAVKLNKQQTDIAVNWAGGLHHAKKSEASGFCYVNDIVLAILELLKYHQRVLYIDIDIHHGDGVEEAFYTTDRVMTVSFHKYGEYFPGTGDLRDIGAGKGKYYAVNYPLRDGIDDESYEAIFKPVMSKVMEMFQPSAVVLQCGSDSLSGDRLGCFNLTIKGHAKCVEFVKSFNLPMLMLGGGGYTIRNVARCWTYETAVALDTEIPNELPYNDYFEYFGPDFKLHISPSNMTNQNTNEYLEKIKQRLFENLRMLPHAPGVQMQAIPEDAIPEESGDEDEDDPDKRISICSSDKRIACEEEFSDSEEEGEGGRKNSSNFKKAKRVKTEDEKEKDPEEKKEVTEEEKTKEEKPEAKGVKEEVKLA

Histone deacetylase 3 = Histone deacetylase 3 (Homo sapiens, UniProt O15379); experiment: Inhibition of human recombinant HDAC3 using [RHKK(Ac)] fluorogenic substrate
Sequence of Histone deacetylase 3 (O15379 whole entry): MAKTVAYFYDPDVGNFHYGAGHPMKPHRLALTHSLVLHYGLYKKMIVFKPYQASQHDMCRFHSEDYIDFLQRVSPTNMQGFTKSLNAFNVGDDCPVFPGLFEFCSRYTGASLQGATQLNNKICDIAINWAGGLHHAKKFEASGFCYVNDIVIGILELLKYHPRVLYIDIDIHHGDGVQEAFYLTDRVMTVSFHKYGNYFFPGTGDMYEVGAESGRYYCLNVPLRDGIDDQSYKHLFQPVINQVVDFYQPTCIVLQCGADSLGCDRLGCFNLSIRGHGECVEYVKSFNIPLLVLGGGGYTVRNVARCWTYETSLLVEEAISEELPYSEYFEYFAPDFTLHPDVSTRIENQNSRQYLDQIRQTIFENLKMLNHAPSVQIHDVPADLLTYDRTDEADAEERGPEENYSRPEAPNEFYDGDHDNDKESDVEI

[2] = biological target: T1, Protein deacetylase HDAC6 (Homo sapiens, UniProt Q9UBN7); experiment: Inhibition of human recombinant HDAC6 expressed in baculovirus infected insect cells using [RHKK(Ac)] fluorogenic substrate
T1 sequence (Q9UBN7 whole entry): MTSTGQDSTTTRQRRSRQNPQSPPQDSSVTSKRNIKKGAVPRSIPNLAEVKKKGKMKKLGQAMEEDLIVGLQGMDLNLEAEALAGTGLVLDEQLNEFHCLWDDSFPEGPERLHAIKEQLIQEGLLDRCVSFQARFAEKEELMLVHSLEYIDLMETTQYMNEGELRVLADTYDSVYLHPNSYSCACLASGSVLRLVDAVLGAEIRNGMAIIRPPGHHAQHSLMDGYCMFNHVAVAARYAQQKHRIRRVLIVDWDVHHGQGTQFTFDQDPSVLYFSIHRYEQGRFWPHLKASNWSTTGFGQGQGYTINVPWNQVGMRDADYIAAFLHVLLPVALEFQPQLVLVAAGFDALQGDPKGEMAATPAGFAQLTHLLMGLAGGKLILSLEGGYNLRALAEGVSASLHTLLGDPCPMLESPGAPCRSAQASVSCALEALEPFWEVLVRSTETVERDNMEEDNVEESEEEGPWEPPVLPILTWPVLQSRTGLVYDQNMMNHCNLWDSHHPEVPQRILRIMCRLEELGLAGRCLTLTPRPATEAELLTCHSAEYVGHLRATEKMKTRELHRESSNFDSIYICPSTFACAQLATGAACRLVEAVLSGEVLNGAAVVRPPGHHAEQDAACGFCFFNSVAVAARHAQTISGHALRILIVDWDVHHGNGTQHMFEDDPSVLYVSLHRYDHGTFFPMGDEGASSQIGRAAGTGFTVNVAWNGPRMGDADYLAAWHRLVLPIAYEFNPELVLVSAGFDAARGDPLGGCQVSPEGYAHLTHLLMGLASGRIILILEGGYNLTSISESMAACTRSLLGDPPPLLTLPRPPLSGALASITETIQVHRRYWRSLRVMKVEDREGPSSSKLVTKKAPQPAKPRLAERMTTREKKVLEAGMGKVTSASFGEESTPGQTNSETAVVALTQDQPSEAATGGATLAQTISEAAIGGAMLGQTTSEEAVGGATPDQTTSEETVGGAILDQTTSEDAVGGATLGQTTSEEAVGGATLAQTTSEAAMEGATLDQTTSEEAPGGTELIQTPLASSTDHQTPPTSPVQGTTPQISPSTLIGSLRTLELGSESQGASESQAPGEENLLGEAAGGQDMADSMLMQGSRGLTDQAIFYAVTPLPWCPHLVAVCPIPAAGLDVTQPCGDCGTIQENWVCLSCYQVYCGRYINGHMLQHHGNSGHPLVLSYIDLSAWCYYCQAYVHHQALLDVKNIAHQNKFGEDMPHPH

Histone deacetylase 8 = biological target: T2, Histone deacetylase 8 (Homo sapiens, UniProt Q9BY41); experiment: Inhibition of human recombinant HDAC8 using [RHKK(Ac)] fluorogenic substrate
T2 sequence (Q9BY41 whole entry): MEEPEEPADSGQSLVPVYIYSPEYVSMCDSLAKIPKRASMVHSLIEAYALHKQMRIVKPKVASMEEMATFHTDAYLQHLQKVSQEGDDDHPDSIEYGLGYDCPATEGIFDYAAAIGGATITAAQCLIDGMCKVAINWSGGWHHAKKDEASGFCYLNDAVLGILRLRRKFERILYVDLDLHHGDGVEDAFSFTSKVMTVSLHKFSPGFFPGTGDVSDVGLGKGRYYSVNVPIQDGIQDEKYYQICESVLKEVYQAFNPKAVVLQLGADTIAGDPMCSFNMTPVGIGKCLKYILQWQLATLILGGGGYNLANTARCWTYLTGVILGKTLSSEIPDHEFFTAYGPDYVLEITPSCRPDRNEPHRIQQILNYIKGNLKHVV

U-87 MG [3] = experiment: Antiproliferation activity against human U-87 MG cells assessed as growth inhibition at 10 uM after 3 days by MTT assay; type: functional, U-87MG ATCC; details: 72 h, time 3 day
A 172 [4] = experiment: Induction of cell cycle arrest in human A 172 cells assessed as accumulation at G2/M phase by propidium iodide staining based flow cytometric analysis; type: functional; details: dose microM <=10
A 172 [5] = experiment: Induction of cell cycle arrest in human A 172 cells assessed as accumulation at G0/G1 phase by propidium iodide staining based flow cytometric analysis; type: functional; details: dose microM <=10
A 172 [6] = experiment: Induction of apoptosis in human A 172 cells assessed as upregulation of activated caspase 3 protein at 3 uM after 24 hrs by western blot analysis; type: functional, cell-based
A 172 [7] = experiment: Induction of apoptosis in human A 172 cells assessed as upregulation of cleaved PARP at 3 uM after 24 hrs by western blot analysis; type: functional, cell-based
A 172 [8] = experiment: Induction of cell cycle arrest in human A 172 cells assessed as sub-G1 population upto 10 uM after 2 days by flow cytometry/PI staining assay; type: functional, cell-based; details: dose microM <=10, time 2.0 day
U-87 MG [9] = experiment: Antiproliferation activity against TMZ resistant human U-87 MG R-50 cells assessed as growth inhibition at 3 uM by MTT assay; type: functional, cell-based; details: U-87MG ATCC
Glioblastoma cell line = experiment: Antiproliferation activity against TMZ resistant human glioblastoma cell P1S assessed as growth inhibition at 3 uM by MTT assay; type: functional
[10] = Permeability of compound by PAMPA-BBB assay
U-87 MG [11] = experiment: Antiproliferation activity against human U-87 MG cells assessed as decrease in cell growth at 30 uM after 3 days by MTT assay; type: functional, U-87MG ATCC; set-up: scale not given: the % may be the effect or the level left; details: time 3 day
U-87 MG [12] = experiment: Antiproliferation activity against human U-87 MG cells assessed as decrease in cell growth at 30 uM incubated for 2 days by MTT assay; type: functional, cell-based; details: U-87MG ATCC, time 2.0 day
A 172 [13] = experiment: Induction of cell cycle arrest in human A 172 cells assessed as accumulation at S phase upto 10 uM by propidium iodide staining based flow cytometric analysis; type: functional; details: dose microM <=10

Row | Compound | pIC50 (U-87 MG [1]) | pIC50 (Histone deacetylase 1) | pIC50 (Histone deacetylase 3) | pIC50 [2] | pIC50 (Histone deacetylase 8) | inhibition at 10 µM (U-87 MG [3]) | further results
1 | CC12CC3CC(C)(C1)CC(NS(=O)(=O)c1cccc(/C=C/C(=O)NO)c1)(C3)C2 | 5.66 | 5.76 | 5.54 | 7.03 | 6.25 | 90% | 
2 | CC12CC3CC(C)(C1)CC(NCc1ccc(C(=O)NO)cc1)(C3)C2 | 4.34 |  |  | 5.49 | 5.06 |  | 
3 | CC12CC3CC(C)(C1)CC(NCc1ccc(NCc4ccc(C(=O)NO)cc4)cc1)(C3)C2 | 5.62 | 4.96 |  | 7.11 | 4.82 | 90% | 
4 | CC12CC3CC(C)(C1)CC(NS(=O)(=O)c1ccc(/C=C/C(=O)NO)cc1)(C3)C2 | 5.70 | 6.02 | 5.99 | 6.99 | 5.13 | 90% | Activity (A 172 [4]): Dose-Dependent Effect; Activity (A 172 [5]): Dose-Dependent Effect; Activity (A 172 [6]): Active; Activity (A 172 [7]): Active; Activity (A 172 [8]): Active
5 | CC12CC3CC(C)(C1)CC(NCc1ccc(/C=C/C(=O)NO)cc1)(C3)C2 | 5.73 |  | 5.55 | 7.11 | 5.99 | 90% | Activity (U-87 MG [9]): inactive; Activity (Glioblastoma cell line): inactive; Activity (A 172 [4]): Dose-Dependent Effect; Activity (A 172 [5]): Dose-Dependent Effect; Activity (A 172 [6]): Active; Activity (A 172 [7]): Active; Activity (A 172 [8]): Active
6 | O=C(CCCCCCC(=O)Nc1ccccc1)NO [VORINOSTAT] |  |  |  |  |  |  | permeability [10]: 1 10^-5 cm/s
7 | CC12CC3CC(C)(C1)CC(N)(C3)C2.Cl [MEMANTINE HYDROCHLORIDE] | 4.63 |  |  |  |  |  | Activity (U-87 MG [11]): 50%; Activity (A 172 [4]): 28%; Activity (A 172 [5]): 57%; Activity (A 172 [6]): inactive; Activity (A 172 [7]): inactive; Activity (U-87 MG [12]): inactive; Activity (A 172 [13]): 10%

Further lines, with some results ahead:

Row | pIC50 (U-87 MG [1]) | pIC50 (Histone deacetylase 1) | pIC50 (Histone deacetylase 3) | pIC50 [2] | pIC50 (Histone deacetylase 8) | Compound | inhibition at 10 µM (U-87 MG [3]) | further results
8 | 4.47 | 5.55 | 5.38 | 6.64 | 5.97 | CC12CC3CC(C)(C1)CC(NC(=O)CCCCCCCC(=O)NO)(C3)C2 |  | 
9 | 4.79 | 4.79 |  | 6.69 | 5.38 | CC12CC3CC(C)(C1)CC(NC(=O)CCCCCC(=O)NO)(C3)C2 |  | 
10 | 4.73 | 5.35 | 4.90 | 6.44 | 6.08 | CC12CC3CC(C)(C1)CC(NC(=O)CCCCCCC(=O)NO)(C3)C2 |  | 
11 | 5.02 | 5.28 | 5.46 | 6.57 | 6.15 | CC12CC3CC(C)(C1)CC(NC(=O)CCCCCCCCC(=O)NO)(C3)C2 |  | 
12 | 5.85 | 6.17 | 6.19 | 7.22 | 6.15 | CC12CC3CC(C)(C1)CC(NCc1cccc(NC(=O)CCCCCCC(=O)NO)c1)(C3)C2 | 90% | 

Source: ChEMBL document CHEMBL4814005, “Pragmatic recruitment of memantine as the capping group for the design of HDAC inhibitors: A preliminary attempt to unravel the enigma of glioblastoma” (Eur J Med Chem, 2021)
